Measured values: PubChem BioAssay AID1963849 (Molecular Pharmacology Branch, DTP, NCI, 2024)
Several values for one entry are separate records, joined by “and”; a condition that tells them apart may be missing. Identical values can stand only once.

Tested on: 299254-011-R-J1-PDC complex spheroid viability
Assay: Anticancer human tumor 299254-011-R-J1-PDC patient-derived melanoma cell line growth inhibition [POLQ]
Settings: for viability, T/C: stronger effect = lower value
Procedure: Multicellular complex tumor spheroid response to Polymerase (POL) inhibitors (novobiocin, ART-558, RP6685) in combination with a variety of drugs and investigational agents in selected tumor cell lines
The POL inhibitors (novobiocin, ART-558, and RP6685) were evaluated both individually and in combination with standard of care and investigational anticancer small molecules within a complex spheroid model of solid tumors. . Complex spheroids include a stromal component modeled by human endothelial cells (HUVEC) and fibroblasts modeled by human mesenchymal stem cells (MSCs). The concentration ranges selected for each drug and investigational agent were based upon clinically achievable concentrations if the clinical Cmax of the agent was known.
Compounds. The drugs and investigational agents: novobiocin (NSC847541), ART-558 (NSC835418), RP-6685 (NSC848927), peposertib (NSC802822), ceralasertib (NSC780249), elimusertib (NSC800525), camonsertib (NSC841442), AZD-1390 (NSC803789), olaparib (NSC753686), talazoparib (NSC767125), rucaparib (NSC756644), sotorasib (NSC818433), MRTX-1133 (NSC836407), SN-38 (NSC673596), topotecan (NSC609699), epotoside (NSC141540), doxorubicin (NSC123127), gemcitabine (NSC613327), 5-fluorouracil (NSC19893), paclitaxel (NSC125973), vemurafenib (NSC761431), MSA-2 (NSC828583), SN-011 (NSC837082), adavosertib (NSC754352), prexasertib (NSC758257), carboplatin (NSC241240) and oxaliplatin (NSC266046), were obtained from the National Cancer Institute (NCI) Developmental Therapeutics Program Chemical Repository (21). The FDA-approved anticancer drug set is available from the Developmental Therapeutics Program at https://dtp.cancer.gov/organization/dscb/obtaining/. […] The stock solutions were prepared in dimethyl sulfoxide (DMSO, Sigma-Aldrich, St. Louis, MO, cat. D2650), except for the platinum compounds which were prepared in saline (Quality Biological, Gaithersburg, MD, cat. 114-055-101), at 800-fold the tested concentration and stored at -70 degrees C prior to their use. All drugs and investigational agents were tested over a range starting from a high concentration at or near the clinical Cmax and decreasing in half-log increments. If the clinical Cmax for an agent had not been determined, the highest concentration tested was 10 microM, except for SN-38, which was tested at a high concentration of 1 microM.
Cell Culture. All cells were maintained in an incubator at 37 degrees C and 5% CO2 with 95% humidity. The PDC lines were cultured according to standard operating procedures established by the NCI PDMR (https://pdmr.cancer.gov). Table 3 of the manuscript, lists the cell lines along with the number of the three cell types plated to form the mct-spheroids and media for tumor cell growth. After thawing, all PDC lines, except 997537-175-T-J1-PDC and 415267-285-R-J2-PDC, were cultured in Matrigel-coated flasks prepared with a working solution of 1X Ham's F-12 nutrient mix, without supplementation (Thermo Fisher Scientific, cat. 11765054), 100 U/mL penicillin-streptomycin (Thermo Fisher Scientific, cat. 15140122), and 2.5% Matrigel (Corning Inc., Corning, NY, cat. 354248) for the first three passages. The two PDC lines 997537-175-T-J1-PDC and 415267-285-R-J2-PDC were cultured on uncoated flasks. The 857933-349-R-J2-PDC line was cultured in 6C/Colon 1B media containing advanced DMEM/F-12 (Thermo Fisher Scientific, cat. 12634028), 10 mM HEPES (Thermo Fisher Scientific, cat. 15630080), 1X GlutaMAX supplement (Thermo Fisher Scientific, cat. 35050061), 0.1 mg/mL primocin (InvivoGen, San Diego, CA, cat. ant-pm-2), 10% defined fetal bovine serum, heat inactivated (HyClone Laboratories Inc., Logan, UT, cat. SH30070.03HI), 50% L-WRN conditioned media (ATCC, cat. CRL-3276), 1.25 mM N-Acetyl-L-cysteine (Sigma-Aldrich, cat. A9165), 10 mM nicotinamide (Sigma-Aldrich, cat. N0636), 1X B-27 supplement (Thermo Fisher Scientific, cat. 17504044), 1X N-2 supplement (Thermo Fisher Scientific, cat. […]
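Note: spheroids exposed to drugs for one week before measurement.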
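Throughout, for viability, T/C: percent viability relative to DMSO vehicle control taken as 100%.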

SMILES: CCc1cc2c(N3CCc4c(cc(Cn5ccnc5)cc4-c4cn(C)nc4C(F)(F)F)C3=O)cc(C)nc2c(OC)n1 + Nc1ccc(C#CCN(C(=O)Cc2ncc(C(F)(F)F)cc2C(F)(F)F)c2ccc(F)cc2)nn1
- IC50 (curve of first compound, second compound 0.0316 µM): > 10 µM
- IC50 (curve of first compound, second compound 0.1 µM): > 10 µM
- IC50 (curve of first compound, second compound 0.316 µM): > 10 µM
- IC50 (curve of first compound, second compound 1 µM): > 10 µM
- IC50 (curve of first compound, second compound 3.16 µM): > 10 µM
- IC50 (curve of first compound, second compound 10 µM): > 10 µM
- viability, T/C (second compound 0.0316 µM, first compound 0.0316 µM): 94.3%
- viability, T/C (second compound 0.0316 µM, first compound 0.1 µM): 99.2%
- viability, T/C (second compound 0.0316 µM, first compound 0.316 µM): 107%
- viability, T/C (second compound 0.0316 µM, first compound 1 µM): 98.5%
- viability, T/C (second compound 0.0316 µM, first compound 3.16 µM): 86.8%
- viability, T/C (second compound 0.0316 µM, first compound 10 µM): 58.7%
- viability, T/C (second compound 0.1 µM, first compound 0.0316 µM): 90.3%
- viability, T/C (second compound 0.1 µM, first compound 0.1 µM): 103%
- viability, T/C (second compound 0.1 µM, first compound 0.316 µM): 117%
- viability, T/C (second compound 0.1 µM, first compound 1 µM): 101%
- viability, T/C (second compound 0.1 µM, first compound 3.16 µM): 92.9%
- viability, T/C (second compound 0.1 µM, first compound 10 µM): 76.1%
- viability, T/C (second compound 0.316 µM, first compound 0.0316 µM): 114%
- viability, T/C (second compound 0.316 µM, first compound 0.1 µM): 110%
- viability, T/C (second compound 0.316 µM, first compound 0.316 µM): 100%
- viability, T/C (second compound 0.316 µM, first compound 1 µM): 94.4%
- viability, T/C (second compound 0.316 µM, first compound 3.16 µM): 95%
- viability, T/C (second compound 0.316 µM, first compound 10 µM): 63.1%
- viability, T/C (second compound 1 µM, first compound 0.0316 µM): 107%
- viability, T/C (second compound 1 µM, first compound 0.1 µM): 95.7%
- viability, T/C (second compound 1 µM, first compound 0.316 µM): 111%
- viability, T/C (second compound 1 µM, first compound 1 µM): 101%
- viability, T/C (second compound 1 µM, first compound 3.16 µM): 89.4%
- viability, T/C (second compound 1 µM, first compound 10 µM): 70.9%
- viability, T/C (second compound 3.16 µM, first compound 0.0316 µM): 116%
- viability, T/C (second compound 3.16 µM, first compound 0.1 µM): 106%
- viability, T/C (second compound 3.16 µM, first compound 0.316 µM): 91.7%
- viability, T/C (second compound 3.16 µM, first compound 1 µM): 86.2%
- viability, T/C (second compound 3.16 µM, first compound 3.16 µM): 90.6%
- viability, T/C (second compound 3.16 µM, first compound 10 µM): 55.1%
- viability, T/C (second compound 10 µM, first compound 0.0316 µM): 98.7%
- viability, T/C (second compound 10 µM, first compound 0.1 µM): 96.5%
- viability, T/C (second compound 10 µM, first compound 0.316 µM): 90.9%
- viability, T/C (second compound 10 µM, first compound 1 µM): 85.3%
- viability, T/C (second compound 10 µM, first compound 3.16 µM): 68%
- viability, T/C (second compound 10 µM, first compound 10 µM): 61.1%

SMILES: CC1COCCN1c1cc(C2(S(C)(=N)=O)CC2)nc(-c2ccnc3[nH]ccc23)n1 (stereo not drawn)
- viability, T/C (compound 0.0316 µM): 92.2% and 108% and 93.8%
- viability, T/C (compound 0.1 µM): 101% and 108% and 94.5%
- viability, T/C (compound 0.316 µM): 106% and 104% and 111%
- viability, T/C (compound 1 µM): 85.5% and 84.5% and 95%
- viability, T/C (compound 3.16 µM): 57.9% and 60.5% and 65.8%
- viability, T/C (compound 10 µM): 41.8% and 43.3% and 37.2%
- IC50 (curve of compound): 5.43 µM and 6.33 µM and 5.97 µM

SMILES: CC(=O)O[C@H]1C(=O)[C@@]2(C)[C@H]([C@H](OC(=O)c3ccccc3)[C@]3(O)C[C@H](OC(=O)[C@H](O)[C@@H](NC(=O)c4ccccc4)c4ccccc4)C(C)=C1C3(C)C)[C@]1(OC(C)=O)CO[C@@H]1C[C@@H]2O
- viability, T/C (compound 0.00949 µM): 84.8% and 82.2% and 94.2%
- viability, T/C (compound 0.03 µM): 76.5% and 84.1% and 70.9%
- viability, T/C (compound 0.0949 µM): 49.1% and 47.2% and 41.7%
- viability, T/C (compound 0.3 µM): 31.8% and 42.1% and 26.9%
- viability, T/C (compound 0.949 µM): 22.3% and 28.3% and 21.8%
- viability, T/C (compound 3 µM): 28.1% and 22.8% and 15.4%
- IC50 (curve of compound): 0.0932 µM and 0.125 µM and 0.0704 µM

SMILES: O=c1[nH]cc(F)c(=O)[nH]1
- viability, T/C (compound 0.0316 µM): 95.9% and 94% and 105%
- viability, T/C (compound 0.1 µM): 103% and 102% and 106%
- viability, T/C (compound 0.316 µM): 105% and 118% and 103%
- viability, T/C (compound 1 µM): 96.4% and 103% and 93.8%
- viability, T/C (compound 3.16 µM): 90.9% and 85.9% and 98.6%
- viability, T/C (compound 10 µM): 74.2% and 79.7% and 81.9%
- IC50 (curve of compound): > 10 µM
